A melting point compilation (Tetko et al.; mined from patent text by program, amines drawn as free bases though some values may be those of a salt)

Which melting point does the source give for `COc1ccc(C2CCOCC2)c2sc(NC(=O)N3CCOCC3)nc12` here?
Its melting point is 217 to 220 °C.

For `COc1cccc2c(Cl)c(C(=O)C(C)C)cnc12`, which melting point is on record?
Its melting point is 90 to 92 °C.

Which melting point does the source give for `CC(C)(C)c1cc(CN(c2cccnc2)S(=O)(=O)c2cccc(Br)c2)cc(C(C)(C)C)c1O` here?
Its melting point is 129 to 131 °C.

For `O=C(O)CCc1cc2c(Cl)c(Cl)ccc2n1S(=O)(=O)c1ccccc1`, which melting point is on record?
The melting point was 220 °C.

For `CCn1cc(C(N)=O)c(=O)c2ccc(-c3ccncc3)cc21`, which melting point is on record?
The melting point was greater than 300 °C.

With `C[C@@](O)(C(=O)Nc1ccc(S(=O)(=O)c2ccc(F)cc2)cc1Cl)C(F)(F)F` as the molecule, how does the melting point read?
Its melting point is 131 to 133 °C.

With `Cc1cccc(C2(Cn3cncn3)CC(COc3ccccc3[N+](=O)[O-])ON2C)c1` (configuration not stated) as the molecule, how does the melting point read?
The melting point was 149 to 152 °C.

With `COC(=O)C1=C(COCCn2c(C)nc(C)c2C)Nc2c(c(=O)n(C)c(=O)n2C)C1c1ccccc1Cl` (configuration not stated) as the molecule, how does the melting point read?
The melting point was 226 to 228 °C.

Which melting point does the source give for `COC(=O)Cc1cccc(OCc2nc(CCc3nc(-c4ccccc4)oc3C)no2)c1` here?
Its melting point is 76 to 77 °C.

Which melting point does the source give for `CS(=O)(=O)N(Cc1cccnc1)c1ccc(C#N)cc1` here?
The melting point was 73 to 75 °C.

Which melting point does the source give for `O=C(C(=C1NCCCS1)[N+](=O)[O-])c1ccc([N+](=O)[O-])cc1` here?
Its melting point is 158 to 160 °C.

For `O=C(C=Cc1cc([N+](=O)[O-])ccc1Cl)N1CCc2c([nH]c3ccccc23)C1c1ccc2c(c1)OCO2` (configuration not stated), which melting point is on record?
Its melting point is 146 °C.

With `Cc1ccc2c(c1)c1c(n2C)CC(C(=O)O)CC1` (configuration not stated) as the molecule, how does the melting point read?
The melting point was 84 to 85 °C.

For `CC(C)CC12CCC3C4CCC(=O)C=C4CCC3C1CCC2OC(=O)CCc1ccccc1` (configuration not stated), which melting point is on record?
Its melting point is 101 to 106 °C.

For `NS(=O)(=O)c1cc(C(=O)O)cc(NCc2ccccc2)c1-c1ccccc1`, which melting point is on record?
The melting point was 221 to 222 °C.

With `CC(=O)SC1(C(=O)O)CCCC1` as the molecule, how does the melting point read?
Its melting point is 120 to 122 °C.

For `Cc1cccc(C)c1Nc1nc(-c2nc3ccc(C(F)(F)F)cc3[nH]2)cs1`, which melting point is on record?
The melting point was 250 to 251 °C.

Which melting point does the source give for `COc1cc2c(cc1Nc1ncc(Cl)c(Nc3ccc(C(N)=O)cc3OC)n1)CCN(CC(=O)N(C)C)CC2` here?
Its melting point is 113 to 131 °C.

For `Cc1ccc(-c2nc(C)cc(Oc3ccccc3)n2)cc1`, which melting point is on record?
The melting point was 90 to 91 °C.

Which melting point does the source give for `O=C(O)c1ccc(OCCNC(=O)C2Cc3ccccc3N2S(=O)(=O)c2ccc(-c3cc(C(F)(F)F)ccc3Cl)cc2)cc1` (configuration not stated) here?
The melting point was 117 to 121 °C.

Which melting point does the source give for `Nc1nc(O)c2c(n1)NCC(CN(C=O)Cc1ccc(C(=O)N[C@@H](CCC(=O)O)C(=O)O)cc1)C2` (some centres not stated) here?
Its melting point is 178 °C.

With `CC(NC(C)CN(CC(C)NC(C)=C1C(=O)CC(C)(C)CC1=O)C(=O)/C=C\C(=O)O)=C1C(=O)CC(C)(C)CC1=O` (configuration not stated) as the molecule, how does the melting point read?
Its melting point is 68 to 70 °C.

Which melting point does the source give for `O=C(c1c(F)cccc1F)N1COCN(c2ccc(S(=O)(=O)C(F)F)cc2F)C1=O` here?
Its melting point is 210 to 213 °C.

For `C#CCOc1cc(-c2ccc(S(C)(=O)=O)cc2)c(-c2ccc(F)cc2)c(C(F)(F)F)n1`, which melting point is on record?
Its melting point is 138 to 139 °C.

With `COc1cc(C=O)ccc1OC(C)c1nc(-c2ccccc2)oc1C` (configuration not stated) as the molecule, how does the melting point read?
Its melting point is 104 to 105 °C.

For `Cc1c(Br)ccc(S(C)(=O)=O)c1C=NO`, which melting point is on record?
The melting point was 192 to 194 °C.

With `CCOc1c(C)ccc2c1c1cc(Br)ccc1n2C(=O)OC(C)(C)C` as the molecule, how does the melting point read?
The melting point was 137 °C.

For `COc1ccc(C=C(C)C(=O)O)cc1F`, which melting point is on record?
The melting point was 167 to 169 °C.

Which melting point does the source give for `COc1ccc(OCc2c(C)cncc2C)c2[nH]c(C3CC3)nc12` here?
The melting point was 152 to 155 °C.

Which melting point does the source give for `COc1ccc(Cc2nc(OCc3ccccc3)cc3cc(OC)c(OC)cc23)cc1OC` here?
The melting point was 114 to 116 °C.

For `ON=Cc1cc(Cl)ncc1Cl`, which melting point is on record?
Its melting point is 173 to 174 °C.

Which melting point does the source give for `CC(OC(=O)C1(C(=O)O)Oc2ccc(C[C@@H](C)NC[C@H](O)c3cccc(Cl)c3)cc2O1)c1ccccc1` (some centres not stated) here?
The melting point was 71 to 79 °C.

Which melting point does the source give for `O=C(Nc1cccnc1)c1c(OCC2CC2)ccc2oc3ccccc3c12` here?
Its melting point is 238 to 240 °C.

With `CCOC(=O)C1CCc2c(c(C)nn2C)C1=O` (configuration not stated) as the molecule, how does the melting point read?
The melting point was 76.5 to 79 °C.

For `COc1ccc(C2=NNC(=O)CC2c2ccc(OC)c(F)c2)cc1F` (configuration not stated), which melting point is on record?
The melting point was 196 to 198 °C.

With `Cn1cc(Cl)c2cccc(C(=O)c3ccccc3)c21` as the molecule, how does the melting point read?
The melting point was 73 to 74.5 °C.

With `CCOC(=O)C=Cc1ccc(C=Cc2csc3ccccc23)s1` as the molecule, how does the melting point read?
Its melting point is 99 to 100 °C.

Which melting point does the source give for `CN(C)C=C(C(=O)C(=O)c1ccccc1C(=O)O)c1ccccc1` here?
Its melting point is 153 °C.

For `Cc1nc(-c2cc3cccc(N(C)S(=O)(=O)c4cccs4)c3[nH]2)cs1`, which melting point is on record?
Its melting point is 161 to 162 °C.

Which melting point does the source give for `CCCCCCCCCCCCCCOc1ccc(CN(C(=O)c2cccnc2)c2ccccc2)cc1` here?
The melting point was 65 to 67 °C.

Which melting point does the source give for `CCNC(=O)Nc1n[nH]c2ccc(-c3ncccc3Cl)cc12` here?
The melting point was 178 to 180 °C.

With `COC(=O)CCc1cc2nc(C)ccc2n1S(=O)(=O)c1ccccc1` as the molecule, how does the melting point read?
Its melting point is 98 to 115 °C.

Which melting point does the source give for `Nc1nc(Nc2ccc3c(c2)OCO3)sc1C(=O)c1ccccc1[N+](=O)[O-]` here?
Its melting point is 200 to 202 °C.

Which melting point does the source give for `O=c1ccn(CCO)c(C(O)c2ccc3ccccc3c2)c1OCc1ccccc1` (configuration not stated) here?
The melting point was 110 to 112 °C.

For `Cc1ccc(S(=O)(=O)OC2CC3(C)C=CC(C)(C2)O3)cc1` (configuration not stated), which melting point is on record?
Its melting point is 75 to 77 °C.

With `CC(=O)OCC1CCc2cc3ccccc3n2CC1` (configuration not stated) as the molecule, how does the melting point read?
The melting point was 77 to 79 °C.

With `COC(=O)c1nc(-c2ccc(Br)c(OC)c2F)cc(NC(C)=O)c1Cl` as the molecule, how does the melting point read?
Its melting point is 164 to 165 °C.

With `O=P1(c2cccc(C(F)(F)F)c2)OCc2ccccc21` (configuration not stated) as the molecule, how does the melting point read?
Its melting point is 102 to 106 °C.

For `COC(=O)c1cc(C(=O)c2ncc3ccc(C(=O)O)cn23)ccc1[N+](=O)[O-]`, which melting point is on record?
The melting point was 290 °C.

For `CCOCc1nc2c(N)nc3cc(-c4ccc(F)nc4)cnc3c2n1CC(C)(C)O`, which melting point is on record?
The melting point was 218 to 220 °C.

With `N#Cc1ccc(OCCCCCOc2ccc(-c3cc4cc(C#N)ccc4o3)cc2)cc1` as the molecule, how does the melting point read?
Its melting point is 163 to 166 °C.

With `Cc1cn(C(c2ccccc2)c2ccc(Cl)c([N+](=O)[O-])c2)cn1` (configuration not stated) as the molecule, how does the melting point read?
The melting point was 105 °C.

Which melting point does the source give for `Cc1ccc(C)n1-c1ccc2ccc3c([nH]c(=O)c(=O)n3CC(=O)NCc3ccccc3)c2c1` here?
The melting point was greater than 290 °C.

With `NC1=NC(c2cccc(-c3cccnc3F)c2)(c2ccc3c(c2)OCCO3)C2=NCCCN12` (configuration not stated) as the molecule, how does the melting point read?
Its melting point is 125 to 140 °C.

For `CC1(C)c2ccccc2C(C)(C)C1(CC#N)SN=O`, which melting point is on record?
The melting point was 67 to 69 °C.

With `CCOC(=O)c1sc2c(c1C)c(N)c(C(=O)c1ccccc1)n2C(C)=O` as the molecule, how does the melting point read?
Its melting point is 188 °C.

For `CC(C)(C)OC(=O)NC[C@H]1CN(c2ccc3c(c2)CC(C(C)(C)C)N3)C(=O)O1` (some centres not stated), which melting point is on record?
Its melting point is 153 to 160 °C.

With `N#Cc1cc(C#N)cc(Oc2c(C3CC3)nn(CCO)c2C2CC2)c1` as the molecule, how does the melting point read?
The melting point was 115 to 117 °C.

Which melting point does the source give for `CN(CCO)Cc1ccc(-c2ccc(N3C[C@H](Cn4ccnn4)OC3=O)cc2F)cn1` here?
The melting point was 137 °C.

With `O=C1NC(=O)c2c1cc(-c1ccccc1)c1[nH]c3ccc(O)cc3c21` as the molecule, how does the melting point read?
The melting point was 335 to 345 °C.

With `CCOC(=O)[C@@]1(F)[C@@H]2CC=C(C(=O)OCc3ccccc3)[C@@H]21` as the molecule, how does the melting point read?
Its melting point is 90 to 91 °C.

Which melting point does the source give for `CNc1nc(S(=O)(=O)Nc2c(F)cccc2F)nn1-c1ccccc1` here?
The melting point was 180 to 181 °C.

With `COc1cc(COc2nn(-c3ccccc3)cc2/C=C/c2nc(C(=O)O)cs2)ccc1OCc1nc(-c2ccco2)oc1C` as the molecule, how does the melting point read?
Its melting point is 170 to 172 °C.

With `COc1ccc(CNn2c(=O)ccc3ccc(N4CCC[C@H]4CO)nc32)cc1Cl` as the molecule, how does the melting point read?
Its melting point is 131 to 134 °C.

For `O=CCCNc1[nH]c(-c2ccc(F)cc2)nc1-c1ccccc1`, which melting point is on record?
The melting point was 201 to 202 °C.

For `O=C1NC(=O)/C(=C/c2cn(-c3ccccc3)nc2OCc2ccccc2)S1`, which melting point is on record?
Its melting point is greater than 300 °C.

Which melting point does the source give for `Nc1nc2cc(-c3ccc(C=C4SC(=O)NC4=O)cn3)cc(C34CC5CC(CC(C5)C3)C4)c2o1` here?
The melting point was greater than 360 °C.
